We go through four compounds from patent publication EP0046990A2, “2-Halogeno-4-alkyl-4,7-dihydro-7-oxo-thieno(3,2-b)-pyridine-6-carboxylic acids, salts thereof at the carboxyl group, pharmaceutical use thereof, and intermediates thereof” (KANEBO, LTD., priority 1980, dated 1982).

Data set [1] concerns Serratia marcescens IFO 3046. In words: antimicrobial test (MIC). Type of data set: cell-based. As to conditions: IFO3046.
The test system of data set [2] is Proteus vulgaris OX-19. In words: antimicrobial test (MIC). Type of data set: cell-based. Particulars: OX19.
Data set [3] relates to Bacillus sub-tillis ATCC 6633. In words: antimicrobial test (MIC). Type of data set: cell-based. As to conditions: ATCC6633.
Data set [4] has as its system Escherichia coli K-12. In words: antimicrobial test (MIC). As to conditions: K12. Type of data set: cell-based.
Data set [5] deals with Klebsiella pneumoniae IFO 3512. In words: antimicrobial test (MIC). Type of data set: cell-based. As to conditions: IFO3512.
The subject of data set [6] is Escherichia coli NIHJ. In words: antimicrobial test (MIC). Type of data set: cell-based.
Data set [7] deals with Proteus mirabilis 1287. In words: antimicrobial test (MIC). Type of data set: cell-based.
In data set [8] the test system is Staphylococcus aureus 209-P. In words: antimicrobial test (MIC). Type of data set: cell-based.
Data set [9] can be described thus: in vivo. As to conditions: mouse, oral administration to mice. The text has this: The compounds of this invention have low toxicity.

Molecules are shown by their SMILES. ≈ marks a conversion by molar mass, not a printed value. Bounds are passed on as bounds.

As for `CCn1cc(C(=O)O)c(=O)c2ccc(C)nc21` [Nalidixic acid, reference compound], the minimal inhibitory concentration (MIC) was 1.56 µg/mL (≈ 6.72 µM) in [1]; 3.13 µg/mL (≈ 13.5 µM) in data set [2]; 3.13 µg/mL (≈ 13.5 µM) in data set [3]; 6.25 µg/mL (≈ 26.9 µM) in data set [4]; 1.56 µg/mL (≈ 6.72 µM) in data set [5]; 1.56 µg/mL (≈ 6.72 µM) in data set [6]. Also, the MIC in [7] is 3.13 µg/mL (≈ 13.5 µM); in data set [8] it was over 100 µg/mL.
For the compound `CCn1cc(C(=O)O)c(=O)c2sc(Cl)cc21` [Compound A, 2-chloro-4,7-dihydro-4-ethyl-7-oxo-thieno(3,2-b)pyridine-6-carboxylic acid], the MIC in data set [1] worked out at 3.13 µg/mL (≈ 12.1 µM); in data set [2], 12.5 µg/mL (≈ 48.5 µM); in [3], 12.5 µg/mL (≈ 48.5 µM); in [4], 12.5 µg/mL (≈ 48.5 µM); in [5], 6.25 µg/mL (≈ 24.3 µM); in data set [6], 1.56 µg/mL (≈ 6.05 µM). Also, the values for the MIC in data set [7] and in data set [8] were 6.25 µg/mL (≈ 24.3 µM) and over 100 µg/mL, respectively.
With `CCn1cc(C(=O)O)c(=O)c2sc(Br)cc21` [Compound B, 2-bromo-4,7-dihydro-4-ethyl-7-oxo-thieno(3,2-b)pyridine-6-carboxylic acid], the MIC in [1] was determined as 1.56 µg/mL (≈ 5.16 µM); in data set [2], 6.25 µg/mL (≈ 20.7 µM); in [3], 6.25 µg/mL (≈ 20.7 µM); in data set [4], 6.25 µg/mL (≈ 20.7 µM); in data set [5], 3.13 µg/mL (≈ 10.4 µM); in data set [6], 1.56 µg/mL (≈ 5.16 µM). For the same compound, the figures for the minimum inhibitory concentration (MIC) in data set [7] and in data set [8] were 3.13 µg/mL (≈ 10.4 µM) and over 100 µg/mL, respectively.
For the compound `CCn1cc(C(=O)O)c(=O)c2sc(I)cc21` [Compound C, 2-iodo-4,7-dihydro-4-ethyl-7-oxo-thieno(3,2-b)pyridine-6-carboxylic acid], the MIC in [1] came to 0.78 µg/mL (≈ 2.23 µM); in data set [2], 0.78 µg/mL (≈ 2.23 µM); in data set [3], 1.56 µg/mL (≈ 4.47 µM); in data set [4] it was 3.13 µg/mL (≈ 8.96 µM); in data set [5] it was 1.56 µg/mL (≈ 4.47 µM); in data set [6], 1.56 µg/mL (≈ 4.47 µM). Moreover, the results for the minimal inhibitory concentration (MIC) in [7] and in data set [8] were 0.78 µg/mL (≈ 2.23 µM) and 25 µg/mL (≈ 71.6 µM), respectively. The compound also yielded an LD50 in data set [9] of 2800 mg/kg.
